PMC11848821, “Acrolein-Mediated Conversion of Lysine to Electrophilic Heterocycles for Protein Diversification and Toxicity Profiling” (Journal of the American Chemical Society, 2025)

Tests used:
Assay type in all cases: binding
[1] = molecular target: T1, bovine serum albumin (BSA) (Bos taurus, UniProt P02769); test: in-gel fluorescence after thiol-FITC addition to the adduct; details: covalent; lysine adduct (FDP); 12 h
T1 construct: gene ALB; commercial native protein, mature

lysozyme chicken = molecular target: T2, lysozyme chicken (Gallus gallus, UniProt P00698); test: intact protein MS and MS/MS; details: covalent; lysine adduct (FDP)
T2 construct: gene LYZ
T2 sequence (P00698 19-147): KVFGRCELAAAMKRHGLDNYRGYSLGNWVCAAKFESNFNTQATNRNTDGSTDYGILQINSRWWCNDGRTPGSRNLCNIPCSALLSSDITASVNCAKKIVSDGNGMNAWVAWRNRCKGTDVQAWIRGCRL

lysozyme human = molecular target: T3, lysozyme human (Homo sapiens, UniProt P61626); test: intact protein MS and MS/MS; details: covalent; lysine adduct (FDP)
T3 construct: gene LYZ; commercial protein, mature
T3 sequence (P61626 19-148): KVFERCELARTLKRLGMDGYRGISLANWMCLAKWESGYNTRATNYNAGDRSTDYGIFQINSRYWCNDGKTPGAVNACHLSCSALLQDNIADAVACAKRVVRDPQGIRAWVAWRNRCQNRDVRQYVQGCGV

T1 sequence (P02769 25-607): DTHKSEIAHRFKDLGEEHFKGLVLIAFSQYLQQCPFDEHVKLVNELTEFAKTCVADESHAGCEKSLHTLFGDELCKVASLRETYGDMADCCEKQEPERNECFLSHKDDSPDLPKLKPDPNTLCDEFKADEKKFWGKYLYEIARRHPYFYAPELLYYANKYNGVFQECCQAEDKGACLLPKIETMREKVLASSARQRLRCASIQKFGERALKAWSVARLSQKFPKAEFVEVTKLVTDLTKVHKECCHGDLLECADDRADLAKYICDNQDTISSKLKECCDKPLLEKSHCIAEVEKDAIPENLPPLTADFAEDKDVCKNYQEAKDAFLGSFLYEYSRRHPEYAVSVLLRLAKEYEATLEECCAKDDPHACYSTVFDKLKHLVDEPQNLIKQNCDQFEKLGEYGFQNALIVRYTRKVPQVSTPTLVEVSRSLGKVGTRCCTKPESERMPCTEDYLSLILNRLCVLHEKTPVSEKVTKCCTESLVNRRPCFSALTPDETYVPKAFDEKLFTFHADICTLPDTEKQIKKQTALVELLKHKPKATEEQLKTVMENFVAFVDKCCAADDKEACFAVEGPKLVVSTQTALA

C=CC=O [acrolein]
in-gel fluorescence after thiol-FITC addition to the adduct [1]: formation of FDP-lysine and labeling of Apo-transferrin, BSA, and myoglobin with FITC fluorophore | intact protein MS and MS/MS (lysozyme chicken): ribonuclease A, lysozyme chicken, lysozyme human, β-lactoglobulin, and apo-Transferrin | intact protein MS and MS/MS (lysozyme human): ribonuclease A, lysozyme chicken, lysozyme human, β-lactoglobulin, and apo-Transferrin
